# Assay results taken from patent publication US20030033616A1, “Imaging marker transgenes” (priority 2001, published 2003).
# Key:
# [1] = tested on: ScFv FITC on CHO cells; assay: Competition binding on CHO ScFv FITC-expressing cells; conditions: in the presence of 1 nM 111In-DTPA-FITC as tracer
# Procedure: Wild-type or ScFv FITC-expressing cells were plated at 3×10^4 cells/well in 96-well plates one day before binding experiments. […] Cells were gently agitated for 45 minutes at rt and then washed three times 250 ul/well PBS at 4 degrees C. […] For competition experiments, competitor compounds were diluted in 50 ul/well of PBS, 0.1% BSA and added first to washed wells containing cells as above. […] Incubations, washes and counting were performed as above.
# [2] = tested on: Wild-type CHO cells; assay: FACS staining of wild-type CHO cells; type: binding
# Procedure: (§1) Stable transfectants were isolated essentially as described (Mattheakis et al., 1999). All ScFv FITC expression constructs contain a neo resistance cassette. Primary G418-resistant populations were stained with mAb 179 labeled with fluorescein as follows. Antibody 179 was linked to fluorescein using fluorescein isothiocyanate (FITC, Molecular Probes, Eugene, Oreg.). This modified mAb 179 contained on average six fluoresceins per antibody molecule. Cells, ˜3-5×10^6, were resuspended in 500 μl of PBS, 0.1% BSA containing mAb 179-FITC at a final concentration of 8 μg/ml. Cells were rotated in the dark for 45 min, spun down, and subsequently resuspended in PBS and enrich sorted using a FACStar plus (Becton-Dickinson, San Jose, Calif.) based on the highest fluorescence. Enriched populations were cloned by limiting dilution and subsequently screened by ELISA. Briefly, 96well plates of clones were fixed with 200 μl per well of ice cold methanol for 10 min. Subsequent steps were done at room temperature (rt). Plates were blocked with PBS, 1% BSA for 30 min and then incubated with mAb 179, 1 μg/ml in PBS, 0.1% BSA for 1h. After 3 washes of 10 min each with PBS, wells were incubated with 1 μg/ml goat anti-mouse-HRP (Pierce, Rockford, Ill.) in PBS, 0.1% BSA for 1 h, washed with PBS three times as above, developed with a TMB peroxidase substrate colorometric assay ( Kirkegaard & Perry Laboratories, Gaithersburg, Md.) and the OD415 measured. Reactive clones were expanded, stained with mAb 179-fluorescein as above and analyzed using a FACScan (Becton-Dickinson, San Jose, Calif.) to choose those with the highest expression of the ScFv based on fluorescence. Clones were also analyzed by anti-179 Western blotting to verify the size of the ScFv protein expressed. ScFv-expressing clones were compared to wild-type CHO-K1 cells by FACScan using further reagents as follows in PBS, 0.1% BSA as above for mAb 179-fluorescein staining. FITC-BSA (Sigma, St. Louis, Mo.) was used at a final concentration of 20 μg/ml and DTPA-FITC and In-DTPA-FITC were each used at a final concentration of 2 μg/ml.
# [3] = tested on: FITC ScFv expressed on CHO cells; assay: FACS staining of CHO cells expressing FITC ScFv; type: binding
# Procedure: as §1
Compound,IC50 [1] [nM],"Mean (fluorescence, FACS) ([2]; marker A11)","Median (fluorescence, FACS) ([2]; marker A11)","Mean (fluorescence, FACS) ([2]; marker M1)","Median (fluorescence, FACS) ([2]; marker M1)","Mean (fluorescence, FACS) ([3]; marker A11)","Median (fluorescence, FACS) ([3]; marker A11)","Mean (fluorescence, FACS) ([3]; marker M1)","Median (fluorescence, FACS) ([3]; marker M1)"
"O=C1OC2(c3ccccc31)c1cc(I)c(O)c(I)c1Oc1c2cc(I)c(O)c1I [erythrosine, reference compound]",309,,,,,,,,
Diethylenetriaminepenta-acetic acid (DTPA) coupled to fluorescein [DTPA-FITC],11.8,13.89,7.99,8.24,7.84,100.62,90.58,98.06,91.40
